Test results published in US20090215778A1, “Alpha-substituted Arylmethyl Piperazine Pyrazolo [1,5-alpha]Pyrimidine Amide Derivatives” (priority 2007, published 2009).

Experiments:
[1] = system: HIV-1, NL4-3 strain; experiment: Virus infection assay (virus entry and single-cycle infection); format: cell-based; details: Human immunodeficiency virus 1, NL43, TZM-b1, read-out: Nl4
How it was run: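 Single-cycle entry/infection read-out: β-galactosidase chemiluminescence measured one day after infection. Compounds were present during a 4 h, 37 °C exposure of TZM-b1 reporter cells to NL4-3 virus at MOI 0.01 plus DEAE-dextran (80 μg/mL final), followed by addition of complete medium.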

[2] = molecular target: T1, HIV Env six-helix bundle (6HB) structure (Human immunodeficiency virus type 1 group M subtype B, UniProt P04579); experiment: Six-helix bundle (6HB) assay; format: cell-based, HIV-1 (strain RF)
T1 construct: H9 cells chronically infected with HIV-1 (H9/HIV-1RF); endogenous in cells; host or cells: H9 cells chronically infected with HIV-1 strain RF (Env is made from the virus in the infected cells, not by transfection)
How it was run: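 Flow cytometry measured binding of a six-helix-bundle-specific polyclonal antibody, detected with PE-labelled secondary at 4 °C for 45 min, on H9/HIV-1 RF chronically infected cells. Compound was given 30 min at 37 °C before 1 μg/mL soluble CD4 induction for 1 h. Inhibition appears as reduced fluorescence.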

T1 sequence (P04579 32-519): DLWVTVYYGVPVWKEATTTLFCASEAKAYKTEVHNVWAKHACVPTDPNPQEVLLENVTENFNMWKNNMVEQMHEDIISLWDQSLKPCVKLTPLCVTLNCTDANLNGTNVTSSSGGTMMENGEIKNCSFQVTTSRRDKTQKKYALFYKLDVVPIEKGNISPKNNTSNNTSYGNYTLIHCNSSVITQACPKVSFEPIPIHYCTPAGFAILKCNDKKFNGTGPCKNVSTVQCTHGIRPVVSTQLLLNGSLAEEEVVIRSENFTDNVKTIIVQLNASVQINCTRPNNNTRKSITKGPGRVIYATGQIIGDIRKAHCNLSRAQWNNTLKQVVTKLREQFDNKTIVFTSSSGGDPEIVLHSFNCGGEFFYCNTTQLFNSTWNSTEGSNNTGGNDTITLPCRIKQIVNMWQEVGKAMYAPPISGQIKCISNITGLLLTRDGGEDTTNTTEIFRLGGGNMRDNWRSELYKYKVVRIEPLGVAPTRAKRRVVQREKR
T1 sequence (P04579 520-865): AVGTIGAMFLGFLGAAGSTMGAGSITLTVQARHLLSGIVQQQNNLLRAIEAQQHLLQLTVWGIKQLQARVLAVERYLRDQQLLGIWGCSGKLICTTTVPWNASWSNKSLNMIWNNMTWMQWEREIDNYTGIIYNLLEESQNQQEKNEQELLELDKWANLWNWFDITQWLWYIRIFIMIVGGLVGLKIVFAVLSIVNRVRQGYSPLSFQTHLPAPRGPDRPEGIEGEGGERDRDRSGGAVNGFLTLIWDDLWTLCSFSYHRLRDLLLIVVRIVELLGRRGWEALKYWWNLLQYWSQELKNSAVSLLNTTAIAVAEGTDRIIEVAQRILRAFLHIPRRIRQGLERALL

SMILES | IC50 [1] [nM] | IC50 [2] [nM]
COc1ccc(-c2nc3c(C(=O)N4CCN(C(CO)c5cc(C)cs5)C[C@H]4C)cnn3c(C(F)(F)F)c2C)cc1 (stereo partly drawn) [methanone, [(2R)-4-[2-hydroxy-1-(4-methyl-2-thienyl)ethyl]-2-methyl-1-piperazinyl][5-(4-methoxyphenyl)-6-methyl-7-(trifluoromethyl)pyrazolo[1,5-α]pyrimidin-3-yl]-] | < 1000 | < 1000
COc1ccc(-c2nc3c(C(=O)N4CCN(C(CO)c5ccc(OC)nc5)C[C@H]4C)cnn3c(C(F)(F)F)c2C)cc1 (stereo partly drawn) [methanone, [(2R)-4-[2-hydroxy-1-(6-methoxy-3-pyridinyl)ethyl]-2-methyl-1-piperazinyl][5-(4-methoxyphenyl)-6-methyl-7-(trifluoromethyl)pyrazolo[1,5-α]pyrimidin-3-yl]-] | < 1000 | < 1000
COc1ccc(-c2nc3c(C(=O)N4CCN(C(CO)c5ccccc5OC(F)(F)F)C[C@H]4C)cnn3c(C(F)(F)F)c2C)cc1 (stereo partly drawn) [methanone, [(2R)-4-[2-hydroxy-1-[2-(trifluoromethoxy)phenyl]ethyl]-2-methyl-1-piperazinyl][5-(4-methoxyphenyl)-6-methyl-7-(trifluoromethyl)pyrazolo[1,5-α]pyrimidin-3-yl]-] | 1100 to 10000 | 1100 to 10000
COc1ccc(-c2nc3c(C(=O)N4CCN(C(CO)c5ccccc5C(F)(F)F)C[C@H]4C)cnn3c(C(F)(F)F)c2C)cc1 (stereo partly drawn) [methanone, [(2R)-4-[2-hydroxy-1-[2-(trifluoromethyl)phenyl]ethyl]-2-methyl-1-piperazinyl][5-(4-methoxyphenyl)-6-methyl-7-(trifluoromethyl)pyrazolo[1,5-α]pyrimidin-3-yl]-] | < 1000 | < 1000
COc1ccc(-c2nc3c(C(=O)N4CCN(C(CO)c5cccc(N6CCNCC6)c5)C[C@H]4C)cnn3c(C(F)(F)F)c2C)cc1 (stereo partly drawn) [methanone, [(2R)-4-[2-hydroxy-1-[3-(1-piperazinyl)phenyl]ethyl]-2-methyl-1-piperazinyl][5-(4-methoxyphenyl)-6-methyl-7-(trifluoromethyl)pyrazolo[1,5-α]pyrimidin-3-yl]-] | > 10100 | > 10100
COc1ccc(-c2nc3c(C(=O)N4CCN(C(CO)c5cccc(N6CCCC6)c5)C[C@H]4C)cnn3c(C(F)(F)F)c2C)cc1 (stereo partly drawn) [methanone, [(2R)-4-[2-hydroxy-1-[3-(1-pyrrolidinyl)phenyl]ethyl]-2-methyl-1-piperazinyl][5-(4-methoxyphenyl)-6-methyl-7-(trifluoromethyl)pyrazolo[1,5-α]pyrimidin-3-yl]-] | < 1000 | < 1000
COc1ccc(-c2nc3c(C(=O)N4CCN(C(CO)c5cccc(N6CCOCC6)c5)C[C@H]4C)cnn3c(C(F)(F)F)c2C)cc1 (stereo partly drawn) [methanone, [(2R)-4-[2-hydroxy-1-[3-(4-morpholinyl)phenyl]ethyl]-2-methyl-1-piperazinyl][5-(4-methoxyphenyl)-6-methyl-7-(trifluoromethyl)pyrazolo[1,5-α]pyrimidin-3-yl]-] | 1100 to 10000 | 1100 to 10000
COc1ccc(-c2nc3c(C(=O)N4CCN(C(CO)c5cccc(S(C)(=O)=O)c5)C[C@H]4C)cnn3c(C(F)(F)F)c2C)cc1 (stereo partly drawn) [methanone, [(2R)-4-[2-hydroxy-1-[3-(methylsulfonyl)phenyl]ethyl]-2-methyl-1-piperazinyl][5-(4-methoxyphenyl)-6-methyl-7-(trifluoromethyl)pyrazolo[1,5-α]pyrimidin-3-yl]-] | > 10100 | > 10100
COc1ccc(-c2nc3c(C(=O)N4CCN(C(CO)c5cccc(OC(F)(F)F)c5)C[C@H]4C)cnn3c(C(F)(F)F)c2C)cc1 (stereo partly drawn) [methanone, [(2R)-4-[2-hydroxy-1-[3-(trifluoromethoxy)phenyl]ethyl]-2-methyl-1-piperazinyl][5-(4-methoxyphenyl)-6-methyl-7-(trifluoromethyl)pyrazolo[1,5-α]pyrimidin-3-yl]-] | < 1000 | < 1000
COc1ccc(-c2nc3c(C(=O)N4CCN(C(CO)c5cccc(C(F)(F)F)c5)C[C@H]4C)cnn3c(C(F)(F)F)c2C)cc1 (stereo partly drawn) [methanone, [(2R)-4-[2-hydroxy-1-[3-(trifluoromethyl)phenyl]ethyl]-2-methyl-1-piperazinyl][5-(4-methoxyphenyl)-6-methyl-7-(trifluoromethyl)pyrazolo[1,5-α]pyrimidin-3-yl]-] | 1100 to 10000 | < 1000
COc1ccc(-c2nc3c(C(=O)N4CCN([C@@H](CO)c5cccc(OC)c5F)C[C@H]4C)cnn3c(C(F)(F)F)c2C)cc1 [methanone, [(2R)-4-[(1R)-1-(2-fluoro-3-methoxyphenyl)-2-hydroxyethyl]-2-methyl-1-piperazinyl][5-(4-methoxyphenyl)-6-methyl-7-(trifluoromethyl)pyrazolo[1,5-α]pyrimidin-3-yl]-] | < 1000 | < 1000
COc1ccc(-c2nc3c(C(=O)N4CCN([C@@H](CO)c5ccccc5F)C[C@H]4C)cnn3c(C(F)(F)F)c2C)cc1 [methanone, [(2R)-4-[(1R)-1-(2-fluorophenyl)-2-hydroxyethyl]-2-methyl-1-piperazinyl][5-(4-methoxyphenyl)-6-methyl-7-(trifluoromethyl)pyrazolo[1,5-α]pyrimidin-3-yl]-] | < 1000 | < 1000
COc1ccc(-c2nc3c(C(=O)N4CCN([C@H](CO)c5ccco5)C[C@H]4C)cnn3c(C(F)(F)F)c2C)cc1 [methanone, [(2R)-4-[(1R)-1-(2-furanyl)-2-hydroxyethyl]-2-methyl-1-piperazinyl][5-(4-methoxyphenyl)-6-methyl-7-(trifluoromethyl)pyrazolo[1,5-α]pyrimidin-3-yl]-] | < 1000 | < 1000
COc1ccc(-c2nc3c(C(=O)N4CCN([C@H](C)c5ccc(F)c(F)c5)C[C@H]4C)cnn3c(C(F)(F)F)c2C)cc1 [methanone, [(2R)-4-[(1R)-1-(3,4-difluorophenyl)ethyl]-2-methyl-1-piperazinyl][5-(4-methoxyphenyl)-6-methyl-7-(trifluoromethyl)pyrazolo[1,5-α]pyrimidin-3-yl]-] | < 1000 | < 1000
COc1ccc(-c2nc3c(C(=O)N4CCN([C@H](C)c5cc(F)cc(F)c5)C[C@H]4C)cnn3c(C(F)(F)F)c2C)cc1 [methanone, [(2R)-4-[(1R)-1-(3,5-difluorophenyl)ethyl]-2-methyl-1-piperazinyl][5-(4-methoxyphenyl)-6-methyl-7-(trifluoromethyl)pyrazolo[1,5-α]pyrimidin-3-yl]-] | < 1000 | < 1000
COc1ccc(-c2nc3c(C(=O)N4CCN([C@@H](CO)c5c(C)noc5C)C[C@H]4C)cnn3c(C(F)(F)F)c2C)cc1 [methanone, [(2R)-4-[(1R)-1-(3,5-dimethyl-4-isoxazolyl)-2-hydroxyethyl]-2-methyl-1-piperazinyl][5-(4-methoxyphenyl)-6-methyl-7-(trifluoromethyl)pyrazolo[1,5-α]pyrimidin-3-yl]-] | 1100 to 10000 | 1100 to 10000
COc1ccc(-c2nc3c(C(=O)N4CCN([C@H](C)c5ccc(F)cc5)C[C@H]4C)cnn3c(C(F)(F)F)c2C)cc1 [methanone, [(2R)-4-[(1R)-1-(4-fluorophenyl)ethyl]-2-methyl-1-piperazinyl][5-(4-methoxyphenyl)-6-methyl-7-(trifluoromethyl)pyrazolo[1,5-α]pyrimidin-3-yl]-] | < 1000 | < 1000
COc1ccc(-c2nc3c(C(=O)N4CCN([C@H](CO)c5ccc(Cl)s5)C[C@H]4C)cnn3c(C(F)(F)F)c2C)cc1 [methanone, [(2R)-4-[(1R)-1-(5-chloro-2-thienyl)-2-hydroxyethyl]-2-methyl-1-piperazinyl][5-(4-methoxyphenyl)-6-methyl-7-(trifluoromethyl)pyrazolo[1,5-α]pyrimidin-3-yl]-] | < 1000 | < 1000
COc1ccc(-c2nc3c(C(=O)N4CCN([C@@H](CO)c5cccnc5OC)C[C@H]4C)cnn3c(C(F)(F)F)c2C)cc1 [methanone, [(2R)-4-[(1R)-2-hydroxy-1-(2-methoxy-3-pyridinyl)ethyl]-2-methyl-1-piperazinyl][5-(4-methoxyphenyl)-6-methyl-7-(trifluoromethyl)pyrazolo[1,5-α]pyrimidin-3-yl]-] | < 1000 | < 1000
COc1ccc(-c2nc3c(C(=O)N4CCN([C@@H](CO)c5ccccc5OC)C[C@H]4C)cnn3c(C(F)(F)F)c2C)cc1 [methanone, [(2R)-4-[(1R)-2-hydroxy-1-(2-methoxyphenyl)ethyl]-2-methyl-1-piperazinyl][5-(4-methoxyphenyl)-6-methyl-7-(trifluoromethyl)pyrazolo[1,5-α]pyrimidin-3-yl]-] | < 1000 | < 1000
COc1ccc(-c2nc3c(C(=O)N4CCN([C@@H](CO)c5cccc(OC)c5)C[C@H]4C)cnn3c(C(F)(F)F)c2C)cc1 [methanone, [(2R)-4-[(1R)-2-hydroxy-1-(3-methoxyphenyl)ethyl]-2-methyl-1-piperazinyl][5-(4-methoxyphenyl)-6-methyl-7-(trifluoromethyl)pyrazolo[1,5-α]pyrimidin-3-yl]-] | < 1000 | < 1000
COc1ccc(-c2nc3c(C(=O)N4CCN([C@H](CO)c5cc(C)cs5)C[C@H]4C)cnn3c(C(F)(F)F)c2C)cc1 [methanone, [(2R)-4-[(1R)-2-hydroxy-1-(4-methyl-2-thienyl)ethyl]-2-methyl-1-piperazinyl][5-(4-methoxyphenyl)-6-methyl-7-(trifluoromethyl)pyrazolo[1,5-α]pyrimidin-3-yl]-] | < 1000 | < 1000
